The target of experiment [1] is T1, Protease (Human immunodeficiency virus 1, UniProt Q9YQ12). The experiment in a line: Binding affinity to Human immunodeficiency virus 1 protease by SPR biosensor interaction analysis at pH 7.4. (In general: SPR reads the build-up and loss of mass on a sensor chip optically.)
For experiment [2], the target named is T1, Protease. The experiment in a line: Binding affinity to Human immunodeficiency virus 1 protease by SPR biosensor interaction analysis at pH 5.1.
Experiment [3] has as its target T1, Protease. The experiment in a line: Binding affinity to Human immunodeficiency virus 1 protease by SPR biosensor interaction analysis at pH 4.1.

Molecules are shown by their SMILES.

T1 sequence (Q9YQ12 whole entry): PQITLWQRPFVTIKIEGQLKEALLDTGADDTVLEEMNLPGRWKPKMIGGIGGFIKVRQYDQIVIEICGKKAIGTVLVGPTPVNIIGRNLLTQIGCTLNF

For `CNC(=O)[C@@H](NC(=O)[C@H](OCc1ccccc1)[C@H](O)[C@@H](O)[C@@H](OCc1ccccc1)C(=O)N[C@H](C(=O)NC)C(C)C)C(C)C`, the Kd on Protease [1] worked out at 10.8 nM; at Protease [2], 3 nM; at Protease [3] it was 2.97 nM.

`O=C1N(Cc2ccc(CO)cc2)[C@H](COc2ccccc2)[C@H](O)[C@@H](O)[C@@H](COc2ccccc2)N1Cc1ccc(CO)cc1`: the figures for the Kd on Protease [1], on Protease [2] and at Protease [3] were 6.95 nM, 1.84 nM and 1.83 nM, respectively.

Take `O=C(N[C@H]1c2ccccc2C[C@H]1O)[C@H](OCc1ccccc1)[C@H](O)[C@@H](O)[C@@H](OCc1ccccc1)C(=O)N[C@H]1c2ccccc2C[C@H]1O`: the Kd at Protease [1] is 13.9 nM; at Protease [2], 1 nM; at Protease [3], 1.14 nM.

Take `Cc1c(O)cccc1C(=O)N[C@@H](CSc1ccccc1)[C@H](O)CN1C[C@H]2CCCC[C@H]2C[C@H]1C(=O)NC(C)(C)C`: the Kd on Protease [1] worked out at 3.4 nM; at Protease [2], 2.99 nM; on Protease [3], 37.6 nM.

`CC(=O)N[C@H](C(=O)N[C@H](C(=O)N[C@@H](CC(C)C)[C@@H](O)CC(=O)N[C@@H](C)C(=O)N[C@@H](CC(C)C)[C@@H](O)CC(=O)O)C(C)C)C(C)C` [ACETYLPEPSTATIN]: the Kd was 8150 nM on Protease [1], 759 nM at Protease [2] and 208 nM on Protease [3].

For orientation: Kd means the concentration at which binding is half-saturated. A high value points to lower affinity.

Source of the values: ChEMBL document CHEMBL2057160, “Experimental and 'in silico' analysis of the effect of pH on HIV-1 protease inhibitor affinity: implications for the charge state of the protein ionogenic groups” (Bioorg Med Chem, 2012).
